Test results as given in ChEMBL document CHEMBL1129539, “2,4-diamino-5-deaza-6-substituted pyrido[2,3-d]pyrimidine antifolates as potent and selective nonclassical inhibitors of dihydrofolate reductases” (J Med Chem, 1996).
pIC50: −log10 of the molar value.

How the values were obtained:
[1] = molecular target: T1, Dihydrofolate reductase (Pneumocystis carinii, UniProt P16184)
T1 sequence (P16184 whole entry): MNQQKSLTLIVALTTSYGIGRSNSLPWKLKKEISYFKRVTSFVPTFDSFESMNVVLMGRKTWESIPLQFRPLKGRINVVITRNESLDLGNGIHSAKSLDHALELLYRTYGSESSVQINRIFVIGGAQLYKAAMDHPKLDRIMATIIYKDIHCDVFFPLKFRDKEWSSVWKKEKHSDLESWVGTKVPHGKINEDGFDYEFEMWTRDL
Description: Inhibitory activity against Pneumocystis carinii dihydrofolate reductase (in 90 uM dihydrofolic acid)

[2] = molecular target: T2, Dihydrofolate reductase (Rattus norvegicus, UniProt Q920D2)
T2 sequence (Q920D2 whole entry): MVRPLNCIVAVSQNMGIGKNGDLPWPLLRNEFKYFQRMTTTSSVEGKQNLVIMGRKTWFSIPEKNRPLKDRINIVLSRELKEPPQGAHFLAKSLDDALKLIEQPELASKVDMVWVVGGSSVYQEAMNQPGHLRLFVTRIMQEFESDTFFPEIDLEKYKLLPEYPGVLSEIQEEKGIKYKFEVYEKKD
Description: Inhibitory activity against rat liver dihydrofolate reductase (in 90 uM dihydrofolic acid)

[3] = molecular target: T3, Bifunctional dihydrofolate reductase-thymidylate synthase (Toxoplasma gondii, UniProt Q07422)
T3 sequence (Q07422 whole entry): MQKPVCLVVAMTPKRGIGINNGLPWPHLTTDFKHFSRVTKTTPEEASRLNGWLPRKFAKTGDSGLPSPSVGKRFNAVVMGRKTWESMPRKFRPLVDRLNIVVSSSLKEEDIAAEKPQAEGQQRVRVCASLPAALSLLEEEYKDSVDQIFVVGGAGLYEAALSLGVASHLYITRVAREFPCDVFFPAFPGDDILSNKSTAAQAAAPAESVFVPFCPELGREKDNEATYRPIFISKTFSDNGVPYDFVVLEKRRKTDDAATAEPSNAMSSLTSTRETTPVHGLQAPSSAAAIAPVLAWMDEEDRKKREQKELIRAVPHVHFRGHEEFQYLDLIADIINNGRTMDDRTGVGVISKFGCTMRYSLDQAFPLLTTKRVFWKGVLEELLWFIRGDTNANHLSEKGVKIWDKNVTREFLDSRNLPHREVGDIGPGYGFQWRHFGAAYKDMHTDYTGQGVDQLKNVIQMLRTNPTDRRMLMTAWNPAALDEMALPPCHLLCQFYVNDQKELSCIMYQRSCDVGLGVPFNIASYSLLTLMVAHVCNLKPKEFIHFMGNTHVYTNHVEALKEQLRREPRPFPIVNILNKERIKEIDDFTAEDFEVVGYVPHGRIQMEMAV
Description: Inhibitory activity against Toxoplasma gondii dihydrofolate reductase (in 90 uM dihydrofolic acid)

[4] = molecular target: T4, Dihydrofolate reductase (Homo sapiens, UniProt P00374); test: Inhibitory activity against recombinant human dihydrofolate reductase(in 50 uM dihydrofolic acid)
T4 sequence (P00374 whole entry): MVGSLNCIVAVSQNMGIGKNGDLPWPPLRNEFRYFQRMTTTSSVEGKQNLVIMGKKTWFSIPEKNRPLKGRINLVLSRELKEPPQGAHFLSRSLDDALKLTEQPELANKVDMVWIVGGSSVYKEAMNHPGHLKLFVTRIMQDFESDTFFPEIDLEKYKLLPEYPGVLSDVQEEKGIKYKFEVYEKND

[5] = molecular target: Dihydrofolate reductase (Lactobacillus casei, UniProt P00381); test: Inhibitory activity against recombinant lc dihydrofolate reductase(in 50 uM dihydrofolic acid); design: species or system Lacticaseibacillus casei
[6] = molecular target: T5, Dihydrofolate reductase (Escherichia coli, UniProt P0ABQ4); test: Inhibitory activity against recombinant ec dihydrofolate reductase(in 50 uM dihydrofolic acid)
T5 sequence (P0ABQ4 whole entry): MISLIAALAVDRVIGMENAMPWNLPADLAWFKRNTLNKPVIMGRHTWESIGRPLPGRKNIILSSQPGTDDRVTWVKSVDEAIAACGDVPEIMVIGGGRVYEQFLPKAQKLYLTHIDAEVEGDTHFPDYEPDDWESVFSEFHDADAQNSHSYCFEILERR

[7] = molecular target: T3, Bifunctional dihydrofolate reductase-thymidylate synthase; remark: listed apart in the source
Description: Inhibitory activity against Toxoplasma gondii dihydrofolate reductase (in 50 uM dihydrofolic acid)

Chain of Dihydrofolate reductase (Lactobacillus casei, UniProt P00381) (P00381 whole entry): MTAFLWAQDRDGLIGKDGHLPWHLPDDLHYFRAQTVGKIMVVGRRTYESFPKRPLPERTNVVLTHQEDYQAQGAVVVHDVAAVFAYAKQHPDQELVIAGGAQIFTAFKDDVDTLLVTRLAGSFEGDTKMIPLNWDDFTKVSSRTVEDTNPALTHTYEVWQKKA

Which results are given for `COc1cc(OC)c(OC)cc1CNc1cnc2nc(N)nc(N)c2c1`?
pIC50 [1]: 5.26; pIC50 [2]: 5.96; pIC50 [3]: 6.32

With `Nc1nc(N)c2cc(NCc3ccccc3)cnc2n1` as the compound, how does the pIC50 [4] read?
The pIC50 was 5.21.

And the pIC50 [2]?
Its pIC50 is 5.68.

What about the pIC50 [3] of the same compound?
The pIC50 was 6.28.

With `COc1ccc(OC)c(CN(C)c2cnc3nc(N)nc(N)c3c2)c1` as the compound, how does the pIC50 [5] read?
Its pIC50 is 5.24.

What about the pIC50 [6] of the same compound?
Its pIC50 is 6.85.

What about the pIC50 [4] of the same compound?
The pIC50 was 5.07.

And the pIC50 [2]?
Its pIC50 is 7.24.

How did the pIC50 [1] turn out when `COc1cc(CN(C)c2cnc3nc(N)nc(N)c3c2)cc(OC)c1OC` was run?
Its pIC50 is 7.21.

And the pIC50 [2]?
The pIC50 was 7.48.

And the pIC50 [3]?
The pIC50 was 7.85.

What does the source list for `COc1ccc(CNc2cnc3nc(N)nc(N)c3c2)c2ccccc12`?
pIC50 [1]: 5.09; pIC50 [2]: 6.37; pIC50 [3]: 6.42

How did the pIC50 [3] turn out when `COc1cc(CNc2cnc3nc(N)nc(N)c3c2)cc(OC)c1` was run?
Its pIC50 is 5.92.

With `COc1cc(C(C)Nc2cnc3nc(N)nc(N)c3c2)cc(OC)c1OC` (stereo unspecified) as the compound, how does the pIC50 [1] read?
The pIC50 was 5.04.

And the pIC50 [2]?
Its pIC50 is 5.90.

What about the pIC50 [3] of the same compound?
Its pIC50 is 6.71.

With `Nc1nc(N)c2cc(NCc3cccc4ccccc34)cnc2n1` as the compound, how does the pIC50 [1] read?
The pIC50 was 5.41.

What about the pIC50 [2] of the same compound?
Its pIC50 is 6.62.

And the pIC50 [3]?
Its pIC50 is 6.01.

`COc1ccc(OC)c(CNc2cnc3nc(N)nc(N)c3c2)c1` was tested. Which pIC50 [7] did it give?
Its pIC50 is 6.30.

What about the pIC50 [3] of the same compound?
Its pIC50 is 6.51.

`COc1cc(OC)c(CNc2cnc3nc(N)nc(N)c3c2)c(OC)c1` was tested. Which pIC50 [2] did it give?
Its pIC50 is 5.92.

And the pIC50 [3]?
Its pIC50 is 6.64.

With `COc1ccc(CNc2cnc3nc(N)nc(N)c3c2)cc1OC` as the compound, how does the pIC50 [1] read?
The pIC50 was 5.32.

What about the pIC50 [2] of the same compound?
Its pIC50 is 5.82.

And the pIC50 [3]?
The pIC50 was 6.14.

`CN(Cc1ccccc1)c1cnc2nc(N)nc(N)c2c1` was tested. Which pIC50 [4] did it give?
The pIC50 was 6.15.

And the pIC50 [1]?
Its pIC50 is 7.17.

What about the pIC50 [2] of the same compound?
Its pIC50 is 6.85.

And the pIC50 [7]?
Its pIC50 is 7.46.

And the pIC50 [3]?
Its pIC50 is 7.49.

How did the pIC50 [1] turn out when `Nc1nc(N)c2cc(NCCc3ccccc3)cnc2n1` was run?
The pIC50 was 5.71.

And the pIC50 [2]?
The pIC50 was 6.55.

What about the pIC50 [3] of the same compound?
Its pIC50 is 5.35.

Which results are given for `Nc1nc(N)c2cc(NCc3ccc(Oc4ccccc4)cc3)cnc2n1`?
pIC50 [1]: 4.61; pIC50 [2]: 5.54; pIC50 [3]: 5.43

With `COc1cc(CNc2cnc3nc(N)nc(N)c3c2)cc(OC)c1OC` as the compound, how does the pIC50 [7] read?
Its pIC50 is 5.89.

What about the pIC50 [3] of the same compound?
The pIC50 was 6.46.

What does the source list for `COc1ccc2c(CNc3cnc4nc(N)nc(N)c4c3)cccc2c1`?
pIC50 [1]: 4.81; pIC50 [2]: 6.43; pIC50 [3]: 6.15

Which results are given for `CN(Cc1ccc(C(=O)NC(=O)[C@H](N)CCC(=O)O)cc1)c1cnc2nc(N)nc(N)c2c1`?
pIC50 [5]: 6.77; pIC50 [6]: 7.89; pIC50 [4]: 6.19

With `CN(CCc1ccccc1)c1cnc2nc(N)nc(N)c2c1` as the compound, how does the pIC50 [1] read?
The pIC50 was 5.74.

What about the pIC50 [2] of the same compound?
The pIC50 was 5.85.

What about the pIC50 [3] of the same compound?
Its pIC50 is 6.04.

With `COc1ccc(CN(C)c2cnc3nc(N)nc(N)c3c2)c(OC)c1OC` as the compound, how does the pIC50 [4] read?
The pIC50 was 6.28.

And the pIC50 [1]?
Its pIC50 is 7.10.

And the pIC50 [2]?
Its pIC50 is 7.52.

What about the pIC50 [7] of the same compound?
Its pIC50 is 7.59.

And the pIC50 [3]?
Its pIC50 is 7.59.

With `COc1ccc(CNc2cnc3nc(N)nc(N)c3c2)c(OC)c1OC` as the compound, how does the pIC50 [1] read?
Its pIC50 is 4.82.

And the pIC50 [2]?
Its pIC50 is 5.49.

What about the pIC50 [3] of the same compound?
Its pIC50 is 6.17.

With `COc1cc(CN(C)c2cnc3nc(N)nc(N)c3c2)cc(OC)c1` as the compound, how does the pIC50 [4] read?
The pIC50 was 5.54.

And the pIC50 [2]?
Its pIC50 is 7.14.

And the pIC50 [7]?
Its pIC50 is 7.54.

And the pIC50 [3]?
The pIC50 was 7.51.

With `CCOc1cc(Cc2cnc(N)nc2N)cc(OCC)c1-n1cccc1` [EPIROPRIM] as the compound, how does the pIC50 [2] read?
Its pIC50 is 4.14.

And the pIC50 [3]?
Its pIC50 is 6.33.
